According to PMC6566782, “Prodrugs for Skin Delivery of Menahydroquinone-4, an Active Form of Vitamin K2(20), Could Overcome the Photoinstability and Phototoxicity of Vitamin K2(20)” (International Journal of Molecular Sciences, 2019):

Columns and labels:
[1] = Photostability in ethanol under monochromatic light of different wavelengths, LC-MS/MS; type: physicochemical; conditions: 1 µM in ethanol, 25 °C
Experimental: To evaluate the effect of irradiation wavelength on photostability of MK-4 and MKH-ester derivatives, 1 μM solutions of MK-4, MKH-DMG, and MKH-SUC in ethanol were irradiated with a xenon light source monochromatic light at 279, 341, 373, 404, or 435 nm, and the concentration of each compound was measured by LC-MS/MS. The log of concentration of each compound was plotted against irradiation energy (Figure 3), and the rates and half-life energies of degradation were obtained from slopes (Table 2). […] Hydrolytic degradations of MKH-DMG and MKH-SUC to their corresponding monoesters were accelerated only at the short wavelength of 279 nm (Figure 3B,C).
Solutions of MK-4 and MKH derivatives in ethanol (1 µM) were irradiated with artificial sunlight (SOLAX 100 W XC-100 B, Seric Ltd., Tokyo, Japan) at 12,000 lx in quartz cells. Illuminance was measured using a digital luminometer (LX-1108, Mother Tool). Irradiation samples (1 µM in ethanol) were irradiated with artificial sunlight at 12,000 lx, and with monochromatic light (279, 341, 373, 404, and 435 nm) using a multi-wavelength irradiation spectrometer (MM 3, Bunkoukeiki Co., Ltd., Tokyo, Japan). Irradiation intensity was measured using an irradiation energy measurement power meter (MM 3, Bunkoukeiki Co., Ltd.).
LC-MS/MS was performed using an LCMS-8050 Liquid Chromatograph Mass Spectrometer (Shimadzu, Kyoto, Japan) and Shimadzu HPLC System (system controller (CBM-20A), pump (LD-20AD), degasser (DGU-20As), UV detector (SPD-20A), and auto injector (SIL-20AC HT)). Separations were performed on a CAPCELL PAK C18 UG120 (3 μm, 2.0 mm × 100 mm, Shiseido Co., Ltd., Tokyo, Japan) using a mobile phase of 10 mmol/L ammonium acetate and 0.1% acetic acid in methanol and water (97:3) at a flow rate of 0.4 mL/min. Column temperature was maintained at 40 °C. The mass spectrometer was equipped with an electrospray ionization and was run in positive ion mode. Identification and quantitation were based on MS/MS-multiple reaction monitoring mode using transition ions as follows: m/z 445 → 187 for the [M+H]^+ MK-4 adduct, m/z 445 → 187 for the [M + H]^+ chromenol adduct, 619 → 58 for the [M + H]^+ MKH-DMG adduct, m/z 532 → 58 for the [M + H]^+ MKH-mono-DMG adduct, m/z 664 → 187 for the [M + H]^+ MKH-SUC adduct, m/z 564 → 187 for the [M + H]^+ MKH-mono-SUC adduct, and m/z 461 → 81 for the [M + H]^+ MKO adduct.

HaCaT cells [2] = test: Intracellular MKO and MK-4 levels after treatment with MK-4 and MKH derivatives (MKH delivery), LC-MS/MS; type: cell-based, Human; conditions: 5 µM compound, intracellular MK-4, mean ± SD (n = 3)
Experimental: The potential of MKH derivatives and MK-4 as dermal delivery systems of MKH were assessed by measuring intracellular MKH levels. However, accurate measurement of MKH is difficult because MKH is readily oxidized to MK-4. […] Thus, MKO levels in HaCaT cells can reflect the amount of MKH delivered into the cell and subsequently converted in the carboxylation of VKDP. In addition, MK-4 level in cells after MKH prodrugs treatment indicates the oxidative product of MKH. In this study, the intracellular concentration of MKO and MK-4 in HaCaT cells over time after treatment with MK-4, MKH-DMG, or MKH-SUC (5 μM) was determined by LC-MS/MS (Figure 7). HaCaT cells were seeded at 5.0 × 10^4 cells/well in 24-well plates and allowed to attach for 48 h. Cells were cultured in medium containing 5 μM MK-4, MKH-DMG, or MKH-SUC, then medium was removed and cells were washed twice with PBS. Cells were collected in 500 μL of PBS and sonicated. Cell homogenates were combined with an equal volume of methanol and three times volume of n-hexane, vortexed for 2 min, and centrifuged at 1750× g for 10 min. […] The residue was reconstituted with 20 μL of methanol, and subjected to LC-MS/MS, as described below. The protein concentration of the cell homogenate was determined using a BCA protein assay kit (Thermo Fisher Scientific, Waltham, MA, USA). […]

HaCaT cells [3] = test: Intracellular ROS generation assay (DCFH-DA) with or without UVA irradiation; type: cell-based, Human; conditions: UVA irradiation 15 J/cm^2
Experimental: The in vitro phototoxicity of MK-4 and MKH derivatives were assessed by measuring the intracellular ROS generation and the viability of human epidermal keratinocyte cells (HaCaT) after UVA irradiation in the presence or absence of MK-4 and MKH derivatives. Intracellular ROS generation was determined using the cell permeable probe 2′,7′-dichlorofluorescein diacetate (DCFH-DA), which rapidly reacts with hydroxyl radicals. Cells without drug treatment or UVA irradiation were used as the control. ROS generation and cell viability are shown in Figure 5 and Figure 6, respectively.
Intracellular ROS generation was measured using 2′,7′-dichlorofluorescein diacetate (DCFH-DA; Invitrogen, Carlsbad, CA, USA) as a fluorescent probe. HaCaT cells were seeded at 1.0 × 10^5 cells/well in 96-well plates and cultured overnight. Thereafter, cells were washed with PBS and incubated with 10 µM DCFH-DA solution in PBS at 37 °C for 1 h. Following incubation, test compound solutions in PBS described above were added to each well and re-incubated for 1 h. After incubation, cells were irradiated with UVA at an irradiation intensity of 15 J/cm^2 and the fluorescence intensity (Ex: 485 nm, Em: 530 nm) was measured using an Infinite M200 PRO (Tecan Life Sciences).

With CC(C)=CCC/C(C)=C/CC/C(C)=C/CC/C(C)=C/CC1=C(C)C(=O)c2ccccc2C1=O [MK-4, menaquinone-4, reference compound] the “rate constant (k) of degradation” value ([1]; monochromatic light 279 nm) was 0.533 J^−1·cm^2, the “rate constant (k) of degradation” value ([1]; monochromatic light 341 nm) was 0.422 J^−1·cm^2 and the “rate constant (k) of degradation” value ([1]; monochromatic light 373 nm) was 0.151 J^−1·cm^2. The “rate constant (k) of degradation” value ([1]; monochromatic light 435 nm) was 0.035 J^−1·cm^2, the “AUCMK-4 (0–72 h)” value (HaCaT cells [2]) was 5.628 ± 0.698 nmol·h/mg of Protein and the “intracellular ROS level” value (HaCaT cells [3]) was “elevated in a dose-dependent manner”.
